What was measured:
Conditions in all cases: 72 h
Caco-2 [1] = experiment: cell viability relative to DMSO; higher = less toxic
Calu-3 [2] = experiment: as above
HepG2 [3] = experiment: as above
U2OS [4] = experiment: as above
Vero E6 [5] = experiment: as above
Caco-2 [6] = experiment: relative viability EC50 (midpoint between 100% and the lowest measured viability); higher = less toxic
Calu-3 [7] = experiment: as above
U2OS [8] = experiment: as above
Vero E6 [9] = experiment: as above
Caco-2 [10] = experiment: drug sensitivity score (DSS) for viability; higher = more toxic; extreme values may be limits of the assay
Calu-3 [11] = experiment: as above
HepG2 [12] = experiment: as above
U2OS [13] = experiment: as above
Vero E6 [14] = experiment: as above
HepG2 [15] = experiment: relative viability EC50 (midpoint between 100% and the lowest measured viability); higher = less toxic

Structure (SMILES)	cell viability (Caco-2 [1]; 1 nM) [%]	cell viability (Caco-2 [1]; 10 nM) [%]	cell viability (Caco-2 [1]; 100 nM) [%]	cell viability (Caco-2 [1]; 1000 nM) [%]	cell viability (Caco-2 [1]; 10000 nM) [%]	cell viability (Calu-3 [2]; 1 nM) [%]	cell viability (Calu-3 [2]; 10 nM) [%]	cell viability (Calu-3 [2]; 100 nM) [%]	cell viability (Calu-3 [2]; 1000 nM) [%]	cell viability (Calu-3 [2]; 10000 nM) [%]	cell viability (HepG2 [3]; 1 nM) [%]	cell viability (HepG2 [3]; 10 nM) [%]	cell viability (HepG2 [3]; 100 nM) [%]	cell viability (HepG2 [3]; 1000 nM) [%]	cell viability (HepG2 [3]; 10000 nM) [%]	cell viability (U2OS [4]; 1 nM) [%]	cell viability (U2OS [4]; 10 nM) [%]	cell viability (U2OS [4]; 100 nM) [%]	cell viability (U2OS [4]; 1000 nM) [%]	cell viability (U2OS [4]; 10000 nM) [%]	cell viability (Vero E6 [5]; 1 nM) [%]	cell viability (Vero E6 [5]; 10 nM) [%]	cell viability (Vero E6 [5]; 100 nM) [%]	cell viability (Vero E6 [5]; 1000 nM) [%]	cell viability (Vero E6 [5]; 10000 nM) [%]	relative viability EC50 (Caco-2 [6]) [µM]	relative viability EC50 (Calu-3 [7]) [µM]	relative viability EC50 (U2OS [8]) [µM]	relative viability EC50 (Vero E6 [9]) [µM]	drug sensitivity score (Caco-2 [10])	drug sensitivity score (Calu-3 [11])	drug sensitivity score (HepG2 [12])	drug sensitivity score (U2OS [13])	drug sensitivity score (Vero E6 [14])	relative viability EC50 (HepG2 [15]) [µM]
Cc1cc(C)c(/C=C2\C(=O)Nc3ccccc32)[nH]1 [semaxanib]	103	90.6	100	90.4	91.3	93.2	87.4	93.6	94.9	102	99	96.2	91	92	67.1	99.7	96.6	100	99.4	97.4	103	102	98.7	105	106	> 10	> 10	> 10	> 10	0	0	2.4	0	0	
C[C@H](c1ccc2ccc(OC3CCC(C(F)(F)F)CC3)c(C(F)(F)F)c2c1)N1C2CCC1CC(C(=O)O)C2 (some centres undefined) [autotaxin-modulator-1]	105	91.2	96.1	96.6	83.2	114	97.6	100	106	96.2	90.4	91	105	96	71.9	93.3	95.9	94.3	95.1	83.7	99.2	103	96.4	93.8	89	> 10	> 10	> 10	> 10	0.7	0	1.8	0.1	0	
O=C(NCCCNc1nc(Nc2cccc(NC(=O)N3CCCC3)c2)ncc1I)c1cccs1 [BX-795]	98.2	98	105	92.6	63.7	93.4	97.3	102	107	89.2	96.9	90.4	96.7	101	34.7	104	99.3	100	90.9	31.2	97.8	98.4	97	101	61.7		> 10	2.1		2.9	0	3.5	5.3	1.8	3.26
O=C(N[C@@H]1CC[C@@H](c2cccc(F)c2F)CN(CC(F)(F)F)C1=O)N1CCC(n2c(=O)[nH]c3ncccc32)CC1 [telcagepant]	104	96	102	90.2	86.7	94.7	98.1	95.7	105	108	102	101	96.9	98.8	93.2	98.5	99.1	104	97	97.6						> 10	> 10	> 10		0.6	0	0	0		> 10
COc1ccc(-c2nc3cc(C4=NNC(=O)CC4C)ccc3[nH]2)cc1 (centres undefined) [pimobendan]	106	104	98.4	96.4	80.7	98	85.8	112	95.8	90.8	120	113	103	105	59.5	107	105	103	97.7	84.7	105	110	99.2	101	92.7	> 10	> 10	> 10	> 10	1	0	1.7	0.5	0	
CCCNS(=O)(=O)Nc1ncnc(OCCOc2ncc(Br)cn2)c1-c1ccc(Br)cc1 [macitentan]	102	99.7	102	104	108	97.2	94.1	105	99	103	99.5	108	92.7	85.5	91	101	99.5	100	99.4	101						> 10	> 10	> 10		0	0	1.8	0		> 10
C[C@@H]1CCO[C@H]2Cn3cc(C(=O)NCc4ccc(F)cc4F)c(=O)c(O)c3C(=O)N12 [dolutegravir]	102	94.4	97.6	97.7	88.2	117	113	101	91.1	105	101	114	107	100	57.6	104	103	104	95.6	98.5	97.3	99.7	97	100	81.9	> 10	> 10	> 10	> 10	0.1	0	2.1	0	0.4	
Nc1c(Br)cc(Br)cc1CN[C@H]1CC[C@H](O)CC1 [ambroxol]	100	92.8	98.5	89.4	97.5	105	101	102	91.8	88.7	102	98.5	99.6	103	87.5	103	99	103	101	101						> 10	> 10	> 10		0	0.2	0	0		> 10
COc1cccc(OC)c1-c1cc(C(=O)N[C@@H](CC(C)C)C(=O)O)nn1-c1ccnc2cc(Cl)ccc12 [TC-NTR1-17]	103	99.6	100	91.7	99.9	117	102	93	104	104	102	106	97	106	106											> 10	> 10			0	0	0			> 10
C=CCNc1nc(NCC=C)nc(N2CCN(C(c3ccc(F)cc3)c3ccc(F)cc3)CC2)n1 [almitrine]	91.3	79.4	102	88.2	87.8	111	96.2	96.5	92	98.2	98.8	92.6	80.9	77.9	61	102	96.1	99.4	94.6	97.9	91.7	107	89.2	95.4	91.2	> 10	> 10	> 10	> 10	0.6	0	6.1	0	0.4	
Cc1c(N2C(=O)[C@@H]3[C@H](O)CCN3C2=O)ccc(C#N)c1Cl	95.4	100	89.1	93.1	90.3	106	101	97.4	109	105	97.7	95.4	94	93.8	97.1	94.8	99.8	98.6	94.4	97.1						> 10	> 10	> 10		0	0	0	0		> 10
CO[C@H]1/C=C/O[C@@]2(C)Oc3c(C)c(O)c4c(O)c(c(/C=N/N5CCN(C)CC5)c(O)c4c3C2=O)NC(=O)/C(C)=C\C=C\[C@H](C)[C@H](O)[C@@H](C)[C@@H](O)[C@@H](C)[C@H](OC(C)=O)[C@@H]1C [rifampin]	88.9	88.7	90.8	88.5	105	99.5	99.6	98.7	99.8	102	97.9	102	104	89.4	92.4	96	105	98.2	97.2	86.9	68.7	97.8	70.2	103	64.7	> 10	> 10	> 10		0	0	0.1	0.3	1.2	> 10
O=C1NCCN1CCN1CCC(c2cn(-c3ccc(F)cc3)c3ccc(Cl)cc23)CC1 [sertindole]	97.1	98.3	89.1	80.7	56.6	88.1	112	96.9	92.2	90	96.7	105	93.4	87.7	20.9	93.8	95.3	94.6	99.8	81	106	118	105	88.6	64.5		> 10	> 10		4.6	0.1	6.4	0.5	3.3	1.95
COc1cc(N)c(Cl)cc1C(=O)N[C@@H]1CCN(CCCOc2ccc(F)cc2)C[C@@H]1OC (racemic) [cisapride]	99.8	103	100	98.9	90.3	99.6	101	84	107	110	99.7	101	96	104	102	97.4	101	93.8	98.3	93.5						> 10	> 10	> 10		0	0	0	0		> 10
CC(C)n1nccc1-c1ncccc1COc1cccc(O)c1C=O [voxelotor]	101	95.4	96.5	104	84.6	100	92.4	102	98.8	101	98.1	109	96.9	109	101	102	97.1	96.5	95.8	94.8						> 10	> 10	> 10		0.2	0	0	0		> 10

Source: the supplement of paper PMC13380429
